The results in this text go back to patent US20180344805A1, “GLYCOLIPID COMPOUNDS AND THEIR USES IN THE TREATMENT OF TUMOURS” (Agalimmune Limited (GB/GB), priority 2015, published 2018).

Test [1] relates to CHO-K1 cells. Put plainly: Anti-Gal Recruitment Assay. The class given is cell-based. The note with it: CHO-K1 cells incubated with glycolipid 1 hour at 37° C.; monoclonal anti-Gal IgG1, FITC-conjugated anti-human IgG, flow cytometry; FIGS. 1 and 2. Here is the method:
CHO-K1 cells were harvested from cell culture flasks, counted and resuspended in PBS to a cell density of 5×10^6 cells/ml. Each glycolipid was serially diluted in PBS across nine 1.5 ml centrifuge tubes so that the final volume in the tubes was 100 μl. To each tube, 100 μl of the CHO-K1 cell suspension was added and the tubes incubated for 1 hour at 37° C. After an hour the cells were pelleted by centrifugation at 400 g for 3 minutes and resuspended in 500 μl of PBS+0.1% BSA. This was repeated twice more to wash the cells. After the final wash the cells were resuspended in 100 μl of monoclonal anti-Gal IgG1 diluted 1:8 in PBS+0.1% BSA. The tubes were incubated on ice for 30 minutes. After 30 minutes the cells were pelleted by centrifugation at 400 g for 3 minutes and resuspended in 500 μl of PBS+0.1% BSA. This was repeated twice more to wash the cells. After the final wash the cells were resuspended in 100 μl of FITC-conjugated mouse anti-human IgG (Biolegend) and the tubes incubated on ice for 30 minutes. After 30 minutes the cells were pelleted by centrifugation at 400 g for 3 minutes and resuspended in 500 μl of PBS+0.1% BSA. This was repeated twice more to wash the cells. […] After 5 minutes incubation on ice the cells were analysed on a Cytomics FC500 flow cytometer (Beckman Coulter). […]
(In general: A flow cytometer gives signals particle by particle.)

The test system of test [2] is CHO-K1 cells. Put plainly: Complement Dependent Cytotoxicity Assay. The class given is cell-based. The note with it: for Lysis of glycolipid-labelled cells by human serum complement: CHO-K1 cells labelled with glycolipid, 50% human serum, FIGS. 3 to 5; for EC50: Cricetulus griseus, CHO-K1 cells labelled with glycolipid 1 hour at 37° C., then 50% human serum complement 1 hour at 37° C., cell viability by CellTiter-Glo. On the procedure: CHO-K1 cells were harvested from cell culture flasks, counted and resuspended in PBS to a cell density of 5×10^6 cells/ml. Each glycolipid was serially diluted in PBS across nine 1.5 ml centrifuge tubes so that the final volume in the tubes was 100 μl. To each tube, 100 μl of the CHO-K1 cell suspension was added and the tubes incubated for 1 hour at 37° C. After an hour the tubes were placed on ice for 5 minutes and then the cells washed 3 times with 500 μl of ice-cold PBS. The cells were resuspended in a final volume of 250 μl of ice-cold PBS and 50 μl aliquots were transferred to duplicate wells of a 96 well plate. To each well containing cells 50 μl of 100% normal or heat-inactivated (30 minutes at 56° C.) human serum complement (Innovative Research) was added so that the final concentration of human serum was 50%. The plate was incubated at 37° C. for 1 hour, after which cell viability was measured using CellTiter-Glo reagent (Promega) read on a EnVision plate reader (Perkin Elmer).
On the technique in general: ATP-based viability assays read luminescence as a measure of living cells.

For orientation: EC50 means the concentration giving half of the maximal effect. Regarding `CCCCCCCC/C=C\CCCCCCCC(=O)OCC(COP(=O)(O)OCCNC(=O)CCCCC(=O)NCC(=O)NCC(=O)N(CC(=O)O)CC(=O)NCC(=O)NCC(=O)N(CC(=O)O)CC(=O)NCCNC(=O)CN(CC(=O)O)C(=O)CNC(=O)CNC(=O)CN(CC(=O)O)C(=O)CNC(=O)CNC(=O)CCCCC(=O)NCCCO[C@@H]1OC(CO)[C@@H](O[C@@H]2OC(CO)[C@H](O)[C@H](O[C@H]3OC(CO)[C@H](O)[C@H](O)C3O)C2O)[C@H](O)C1NC(C)=O)OC(=O)CCCCCCC/C=C\CCCCCCCC` (some centres unmarked) [Example 1, Galili-CMG2-DOPE], the “Membrane incorporation and recruitment of anti-Gal antibody” value with CHO-K1 cells [1] is “incorporates into the plasma membrane of CHO-K1 cells and presents the alpha-Gal epitope for recognition by anti-Gal antibodies”. Moreover, in the test with CHO-K1 cells [2], the “Lysis of glycolipid-labelled cells by human serum complement” value is on record as “are lysed by human serum complement” and the midpoint of the response, the EC50, lay at 7.02 µM.

Take `CCCCCCCC/C=C\CCCCCCCC(=O)OCC(COP(=O)(O)OCCNC(=O)CCCCC(=O)NCCCO[C@@H]1OC(CO)[C@@H](O[C@@H]2OC(CO)[C@H](O)C(O[C@H]3OC(CO)[C@H](O)C(O)C3NC(C)=O)C2O)C(O)C1NC(C)=O)OC(=O)CCCCCCC/C=C\CCCCCCCC` (some centres unmarked) [Example 3, GalNAcα1-3Galβ1-4GlcNAc-Ad-DOPE]: in the test on CHO-K1 cells [2], the “Lysis of glycolipid-labelled cells by human serum complement” value is recorded as “are lysed by human serum complement” and the midpoint of the response, the EC50, lay at 86.8 µM.
